Measured values from PubChem BioAssay (NCI).
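Each compound was tested at five concentrations against cells in 96-well plates for 48 hours. Abbreviation: GI50, concentration required for 50% inhibition of growth. At the TGI there is no net growth.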

Assays:
Assay in all cases: DTP human tumour cell line panel, 48 h
OVCAR-3 ovarian = tested on: OVCAR-3 ovarian
M14 melanoma = tested on: M14 melanoma
MALME-3M melanoma = tested on: MALME-3M melanoma
HCC-2998 colon = tested on: HCC-2998 colon
RXF 393 renal = tested on: RXF 393 renal
OVCAR-8 ovarian = tested on: OVCAR-8 ovarian
BT-549 breast = tested on: BT-549 breast
HOP-62 NSCLC = tested on: HOP-62 NSCLC
A498 renal = tested on: A498 renal
IGROV1 ovarian = tested on: IGROV1 ovarian
TK-10 renal = tested on: TK-10 renal
HT29 colon = tested on: HT29 colon
SF-539 CNS = tested on: SF-539 CNS
SK-MEL-28 melanoma = tested on: SK-MEL-28 melanoma
UO-31 renal = tested on: UO-31 renal
HCT-15 colon = tested on: HCT-15 colon
NCI-H522 lung = tested on: NCI-H522 lung
NCI/ADR-RES ovarian = tested on: NCI/ADR-RES ovarian
COLO 205 colon = tested on: COLO 205 colon
SF-295 CNS = tested on: SF-295 CNS
ACHN renal = tested on: ACHN renal
MDA-MB-435 = tested on: MDA-MB-435
OVCAR-5 ovarian = tested on: OVCAR-5 ovarian
786-0 renal = tested on: 786-0 renal
KM12 colon = tested on: KM12 colon
EKVX NSCLC = tested on: EKVX NSCLC
SK-OV-3 ovarian = tested on: SK-OV-3 ovarian
LOX IMVI melanoma = tested on: LOX IMVI melanoma
T-47D breast = tested on: T-47D breast
NCI-H23 lung = tested on: NCI-H23 lung
SN12C renal = tested on: SN12C renal
SK-MEL-2 melanoma = tested on: SK-MEL-2 melanoma
SNB-19 CNS = tested on: SNB-19 CNS
UACC-62 melanoma = tested on: UACC-62 melanoma
SK-MEL-5 melanoma = tested on: SK-MEL-5 melanoma
HCT-116 colon = tested on: HCT-116 colon
UACC-257 melanoma = tested on: UACC-257 melanoma
CAKI-1 renal = tested on: CAKI-1 renal
CCRF-CEM leukemia = tested on: CCRF-CEM leukemia
SR leukemia = tested on: SR leukemia
K-562 leukemia = tested on: K-562 leukemia
NCI-H226 lung = tested on: NCI-H226 lung
MOLT-4 leukemia = tested on: MOLT-4 leukemia
SF-268 CNS = tested on: SF-268 CNS
OVCAR-4 ovarian = tested on: OVCAR-4 ovarian
PC-3 prostate = tested on: PC-3 prostate
DU-145 prostate = tested on: DU-145 prostate
MDA-MB-231 breast = tested on: MDA-MB-231 breast
SW-620 colon = tested on: SW-620 colon
NCI-H460 lung = tested on: NCI-H460 lung
HS 578T breast = tested on: HS 578T breast
RPMI-8226 leukemia = tested on: RPMI-8226 leukemia
MCF7 breast = tested on: MCF7 breast
HOP-92 NSCLC = tested on: HOP-92 NSCLC
SNB-75 CNS = tested on: SNB-75 CNS
U251 CNS = tested on: U251 CNS
HL-60(TB) leukemia = tested on: HL-60(TB) leukemia
A549 NSCLC = tested on: A549 NSCLC

Cc1sc2nc(-c3ccc(Cl)c([N+](=O)[O-])c3)c(/C=N/N=C(N)N)n2c1C
TGI (OVCAR-3 ovarian): 3.5 µM | TGI (M14 melanoma): 3.29 µM | TGI (MALME-3M melanoma): 3.68 µM | TGI (HCC-2998 colon): 2.64 µM | TGI (RXF 393 renal): 3.13 µM | TGI (OVCAR-8 ovarian): 2.03 µM | TGI (BT-549 breast): 3.07 µM | TGI (HOP-62 NSCLC): 1.7 µM | TGI (A498 renal): 3.06 µM | TGI (IGROV1 ovarian): 2.44 µM | TGI (TK-10 renal): 3.2 µM | TGI (HT29 colon): 2.63 µM | TGI (SF-539 CNS): 2.99 µM | TGI (SK-MEL-28 melanoma): 2.18 µM | TGI (UO-31 renal): 3.07 µM | TGI (HCT-15 colon): 2.65 µM | TGI (NCI-H522 lung): 3.34 µM | TGI (NCI/ADR-RES ovarian): 6.59 µM | TGI (COLO 205 colon): 1.31 µM | TGI (SF-295 CNS): 3.4 µM | TGI (ACHN renal): 2.77 µM | TGI (MDA-MB-435): 3.11 µM | TGI (OVCAR-5 ovarian): 2.93 µM | TGI (786-0 renal): 1.92 µM | TGI (KM12 colon): 1.87 µM | TGI (EKVX NSCLC): 3.14 µM | TGI (SK-OV-3 ovarian): 3.13 µM | TGI (LOX IMVI melanoma): 2.44 µM | TGI (T-47D breast): 4.76 µM

CN(C)c1ccc(/C=C2\C[C@H]3[C@@H]4CCc5cc(OCCN6CCCC6)ccc5[C@H]4CC[C@]3(C)C2=O)cc1
TGI (NCI-H23 lung): > 100 µM | TGI (BT-549 breast): > 100 µM | TGI (HT29 colon): 0.814 µM | TGI (HCT-15 colon): 2.66 µM | TGI (SN12C renal): 2.97 µM | TGI (COLO 205 colon): 2.85 µM | TGI (SK-MEL-2 melanoma): 3.93 µM | TGI (SNB-19 CNS): 4.09 µM | TGI (ACHN renal): 3.11 µM | TGI (UACC-62 melanoma): 4.24 µM | TGI (OVCAR-5 ovarian): 8.62 µM | TGI (SK-MEL-5 melanoma): 3.22 µM | TGI (786-0 renal): 2.6 µM | TGI (EKVX NSCLC): 6.32 µM | TGI (HCT-116 colon): 2.45 µM | TGI (UACC-257 melanoma): 5.35 µM

O=C1/C(=C/c2ccccc2)CN(C(=O)c2cccnc2)C/C1=C\c1ccccc1
GI50 (OVCAR-3 ovarian): 0.505 µM | TGI (OVCAR-3 ovarian): 1.71 µM | GI50 (M14 melanoma): 1.93 µM | TGI (M14 melanoma): 5.17 µM | GI50 (MALME-3M melanoma): 4.78 µM | TGI (MALME-3M melanoma): 18.9 µM | GI50 (CAKI-1 renal): 2.83 µM | TGI (CAKI-1 renal): 10.3 µM | GI50 (CCRF-CEM leukemia): 0.558 µM | TGI (CCRF-CEM leukemia): 6.05 µM | GI50 (SR leukemia): 0.311 µM | TGI (SR leukemia): 1.35 µM | GI50 (HCC-2998 colon): 0.939 µM | TGI (HCC-2998 colon): 2.27 µM | GI50 (RXF 393 renal): 1.72 µM | TGI (RXF 393 renal): 3.3 µM | GI50 (K-562 leukemia): 0.347 µM | TGI (K-562 leukemia): > 100 µM | GI50 (NCI-H23 lung): 1.83 µM | TGI (NCI-H23 lung): 5.19 µM | GI50 (OVCAR-8 ovarian): 2.08 µM | TGI (OVCAR-8 ovarian): 11.8 µM | GI50 (HOP-62 NSCLC): 3.02 µM | TGI (HOP-62 NSCLC): 10.4 µM | GI50 (A498 renal): 2.19 µM | TGI (A498 renal): 5.42 µM | GI50 (NCI-H226 lung): 3.12 µM | TGI (NCI-H226 lung): 9.79 µM | GI50 (MOLT-4 leukemia): 0.752 µM | TGI (MOLT-4 leukemia): > 100 µM | GI50 (IGROV1 ovarian): 2.85 µM | TGI (IGROV1 ovarian): 9.74 µM | GI50 (TK-10 renal): 3.57 µM | TGI (TK-10 renal): 13.4 µM | GI50 (SF-268 CNS): 2.78 µM | TGI (SF-268 CNS): 13.7 µM | GI50 (HT29 colon): 0.241 µM | TGI (HT29 colon): 0.563 µM | GI50 (OVCAR-4 ovarian): 3.3 µM | TGI (OVCAR-4 ovarian): 13.8 µM | GI50 (PC-3 prostate): 1.44 µM | TGI (PC-3 prostate): 4.81 µM | GI50 (SF-539 CNS): 2.14 µM | TGI (SF-539 CNS): 6.19 µM | GI50 (DU-145 prostate): 2.04 µM | TGI (DU-145 prostate): 6.13 µM | GI50 (MDA-MB-231 breast): 1.92 µM | TGI (MDA-MB-231 breast): 4.83 µM | GI50 (SK-MEL-28 melanoma): 2.39 µM | TGI (SK-MEL-28 melanoma): 6.37 µM | GI50 (UO-31 renal): 1.4 µM | TGI (UO-31 renal): 2.9 µM | GI50 (HCT-15 colon): 0.331 µM | TGI (HCT-15 colon): 1.38 µM | GI50 (NCI-H522 lung): 1.57 µM | TGI (NCI-H522 lung): 3.66 µM | GI50 (SW-620 colon): 0.33 µM | TGI (SW-620 colon): 1.8 µM | GI50 (NCI-H460 lung): 2.58 µM | TGI (NCI-H460 lung): 11 µM | GI50 (HS 578T breast): 5.56 µM | TGI (HS 578T breast): 41.5 µM | GI50 (SN12C renal): 2.39 µM | TGI (SN12C renal): 7.96 µM | GI50 (NCI/ADR-RES ovarian): 3.03 µM | TGI (NCI/ADR-RES ovarian): 21.2 µM | GI50 (COLO 205 colon): 1.55 µM | TGI (COLO 205 colon): 3.67 µM | GI50 (SF-295 CNS): 1.79 µM | TGI (SF-295 CNS): 4.23 µM | GI50 (RPMI-8226 leukemia): 0.318 µM | TGI (RPMI-8226 leukemia): 1.44 µM | GI50 (SK-MEL-2 melanoma): 6.72 µM | TGI (SK-MEL-2 melanoma): 20.6 µM | GI50 (MCF7 breast): 0.322 µM | TGI (MCF7 breast): 1.46 µM | GI50 (SNB-19 CNS): 1.49 µM | TGI (SNB-19 CNS): 10.8 µM | GI50 (ACHN renal): 1.99 µM | TGI (ACHN renal): 4.53 µM | GI50 (HOP-92 NSCLC): 10.9 µM | TGI (HOP-92 NSCLC): 23.6 µM | GI50 (MDA-MB-435): 0.483 µM | TGI (MDA-MB-435): 2.15 µM | GI50 (SNB-75 CNS): 5.48 µM | TGI (SNB-75 CNS): 26.7 µM | GI50 (UACC-62 melanoma): 2.32 µM | TGI (UACC-62 melanoma): 5.5 µM | GI50 (OVCAR-5 ovarian): 2 µM | TGI (OVCAR-5 ovarian): 5.13 µM | GI50 (SK-MEL-5 melanoma): 1.8 µM | TGI (SK-MEL-5 melanoma): 3.68 µM | GI50 (U251 CNS): 0.435 µM | TGI (U251 CNS): 2.41 µM | GI50 (HL-60(TB) leukemia): 2.34 µM | TGI (HL-60(TB) leukemia): 11.5 µM | GI50 (786-0 renal): 2.07 µM | TGI (786-0 renal): 4.57 µM | GI50 (KM12 colon): 0.271 µM | TGI (KM12 colon): 0.765 µM | GI50 (EKVX NSCLC): 2.86 µM | TGI (EKVX NSCLC): 11.1 µM | GI50 (SK-OV-3 ovarian): 3.52 µM | TGI (SK-OV-3 ovarian): 11.6 µM | GI50 (LOX IMVI melanoma): 0.21 µM | TGI (LOX IMVI melanoma): 0.483 µM | GI50 (HCT-116 colon): 0.319 µM | TGI (HCT-116 colon): 0.88 µM | GI50 (T-47D breast): 2.92 µM | TGI (T-47D breast): 12.2 µM | GI50 (UACC-257 melanoma): 3.2 µM | TGI (UACC-257 melanoma): 11 µM | GI50 (A549 NSCLC): 3.1 µM | TGI (A549 NSCLC): 12.2 µM
